Test results from patent publication US20050130252A1, “Stabilized susceptibility tests of aerobic pathogens” (Wyeth Holdings Corporation, priority 2003, published 2005).
In brackets after ≈: the same amount, converted by molar mass. Like-named read-outs stand apart in the source and are kept apart here.

Experiments:
Experiment in all cases: Broth microdilution MIC
Assay type in all cases: cell-based
[1] = test system: S. pyogenes GC4563 (Clinical); conditions: Streptococcus pyogenes, read-out: Minimal Inhibitory Concentration
Experimental: (§1) The process for preparing susceptibility test medium are the following steps: • a. Preparing Mueller Hinton Broth II medium by adding 22 grams powdered media to 1.0 liter distilled water; • b. Autoclaving (121° C., 15 psi, 15 minutes) and cooling the medium; • c. Adding Oxyrase® up to about 10% final volume and keeping at 35-37° C. in an incubator for 30 minutes; • d. Adding about 50 μL to each well of a 96 well microtiter plate; • e. Weighing drug and adding broth to drug to bring up to about (standard 128 μg/ml); • f. Adding 50 μL of the drug to the first column of the titer plate; • g. Diluting by two-fold serial diluting across or down the plate. • h. Preparing a Prompt™ inoculum at 10^8 CFU/ml; • i. Diluting inoculum 1:100 in the broth at […] in 9.9 ml (1:100) is 10^6 colony forming units (CFU) forming the adjusted inoculum; • j. Adding 50 μL of the adjusted inoculum to the wells of the microtiter plate; • k. Incubating the plates at 35-37° C. for 18-22 hours; and • l. Reading, with the unaided eye, the MIC.
(§2) The in vitro activities of tigecycline and control antibiotics were determined by the broth microdilution method as recommended by the NCCLS. (National Committee for Clinical Laboratory Standards, 2003. Methods for Dilution Antimicrobial Susceptibility Tests for Bacteria That Grow Aerobically; Approved Standards: M7-A6, Sixth ed, vol. 23., National Committee for Clinical Laboratory Standards Wayne, Pa.) was used for the standard procedures. MBH with 5% lysed horse blood was used for testing S. pneumoniae and Haemophilus Test Medium was used for testing H. influenzae. Oxyrase® (Oxyrase Inc, Mansfield, Ohio) was used according to the manufacturer's instructions by adding 1 ml of Oxyrase® to 50 ml of media. Media age studies were performed by preparing MHB in multiple flasks, then storing the media under various conditions. MICs were usually performed in duplicate on each day of testing. Storage under anaerobic conditions was conducted in an anaerobic chamber (MACS MG 1000, Don Whitley Scientific LTD). The pH of the media was determined by pH meter (Corning 430). A comparison of the in vitro activity of tigecycline by agar and broth dilution methodolgies with and without Oxyrase® against clinical isolates is shown in Table 1.

[2] = test system: Staphylococcus aureus GC1079 tet(K)
Experimental: as §1, §2

[3] = test system: Escherichia coli GC4560 IMP mutant; conditions: E. coli GC4560 IMP mutant
Experimental: as §1, §2

[4] = test system: Staphylococcus aureus GC6466 Clinical - tet(M); conditions: for In Vitro Activity of Tigecycline: Broth, S. aureus GC6466 tet(M); for MIC: Staphylococcus aureus, read-out: Minimal Inhibitory Concentration
Experimental: as §1, §2

[5] = test system: Staphylococcus aureus GC6467 Clinical - tet(M) + (K); conditions: S. aureus GC6467 tet(M) + (K)
Experimental: as §1, §2

[6] = test system: Staphylococcus aureus GC2216 ATCC Control; conditions: for In Vitro Activity of Tigecycline: Broth, S. aureus GC2216 ATCC Control; for MIC: Staphylococcus aureus, S. aureus GC2216 (ATCC Control), read-out: Minimal Inhibitory Concentration
Experimental: as §1, §2

[7] = test system: Candida albicans GC3066 ATCC Control; conditions: for In Vitro Activity of Tigecycline: Broth, C. albicans GC3066 ATCC Control; for MIC: Candida albicans, C. albicans GC3066 ATCC (Control), read-out: Minimal Inhibitory Concentration
Experimental: as §1, §2

[8] = test system: Escherichia coli GC2203 ATCC Control; conditions: for In Vitro Activity of Tigecycline: Broth, E. coli GC2203 ATCC Control; for MIC: Escherichia coli, E. coli GC2203 (ATCC Control), read-out: Minimal Inhibitory Concentration
Experimental: as §1, §2

[9] = test system: Enterococcus faecalis GC4555 ATCC Control; conditions: for In Vitro Activity of Tigecycline: Broth, E. faecalis GC4555 ATCC Control; for MIC: Enterococcus faecalis, E. faecalis GC4555 (ATCC Control), read-out: Minimal Inhibitory Concentration
Experimental: as §1, §2

S. pneumoniae ATCC 49619 = test system: S. pneumoniae ATCC 49619
Experimental: as §1, §2

[10] = test system: Staphylococcus aureus GC4536 Smith MP -In Vivo; conditions: for In Vitro Activity of Tigecycline: Broth, S. aureus GC4536 Smith; for MIC: Staphylococcus aureus, S. aureus GC4536 (Smith MP - In Vivo), read-out: Minimal Inhibitory Concentration
Experimental: as §1, §2

[11] = test system: M. catarrhalis GC6907 (Clinical); conditions: Moraxella catarrhalis, read-out: Minimal Inhibitory Concentration
Experimental: as §1, §2

[12] = test system: Escherichia coli GC1073 tet(B) wt; conditions: for In Vitro Activity of Tigecycline: Broth, E. coli GC1073 tet(B) wt
Experimental: as §1, §2

[13] = test system: Staphylococcus aureus GC1131 Clinical isolate; conditions: for In Vitro Activity of Tigecycline: Broth, S. aureus GC1131; for MIC: Staphylococcus aureus, S. aureus GC1131 (Clinical), read-out: Minimal Inhibitory Concentration
Experimental: as §1, §2

[14] = test system: S. pneumoniae GC4465 (Clinical); conditions: Streptococcus pneumoniae, read-out: Minimal Inhibitory Concentration
Experimental: as §1, §2

[15] = 336 h, Aged Media (two weeks at RT)
[16] = Table 8, Mueller Hinton Broth + Oxyrase, n = 240
[17] = Table 8, Mueller Hinton Broth, n = 320

CN(C)c1cc(NC(=O)CNC(C)(C)C)c(O)c2c1C[C@H]1C[C@H]3[C@H](N(C)C)C(O)=C(C(N)=O)C(=O)[C@@]3(O)C(O)=C1C2=O [Tigecycline, tigecycline]
MIC [1, 15]: 0.03 µg/mL (≈ 0.0512 µM)
MIC ([1]; Fresh Media): < 0.008 µg/mL
In Vitro Activity of Tigecycline ([2]; Broth, no Oxyrase, S. aureus GC1079 tet(K)): 0.50
MIC ([2]; Staphylococcus aureus, read-out: Minimal Inhibitory Concentration): 0.25 µg/mL (≈ 0.427 µM)
In Vitro Activity of Tigecycline ([3]; Oxyrase (2%)): 0.03
In Vitro Activity of Tigecycline ([3]; no Oxyrase): 0.25
In Vitro Activity of Tigecycline ([4]; Oxyrase (2%)): 0.12
In Vitro Activity of Tigecycline ([4]; no Oxyrase): 0.50
MIC ([4]; 336 h): 0.25 µg/mL (≈ 0.427 µM)
MIC [4]: 0.12 µg/mL (≈ 0.205 µM)
In Vitro Activity of Tigecycline ([5]; Oxyrase (2%)): 0.50
In Vitro Activity of Tigecycline ([5]; no Oxyrase): 1
In Vitro Activity of Tigecycline ([6]; Oxyrase (2%)): 0.12
In Vitro Activity of Tigecycline ([6]; no Oxyrase): 0.50
MIC [6, 15]: 0.25 µg/mL (≈ 0.427 µM)
MIC ([6]; Fresh Media): 0.12 µg/mL (≈ 0.205 µM)
In Vitro Activity of Tigecycline ([7]; Oxyrase (2%)): >16
In Vitro Activity of Tigecycline ([7]; no Oxyrase): >16
MIC [7, 15]: > 8 µg/mL
MIC ([7]; Fresh Media): > 8 µg/mL
In Vitro Activity of Tigecycline ([8]; Oxyrase (2%)): 0.12
In Vitro Activity of Tigecycline ([8]; no Oxyrase): 0.25
MIC [8, 15]: 0.12 µg/mL (≈ 0.205 µM)
MIC ([8]; Fresh Media): 0.03 µg/mL (≈ 0.0512 µM)
In Vitro Activity of Tigecycline ([9]; Oxyrase (2%)): 0.06
In Vitro Activity of Tigecycline ([9]; no Oxyrase): 0.50
MIC [9, 15]: 0.25 µg/mL (≈ 0.427 µM)
MIC ([9]; Fresh Media): 0.03 µg/mL (≈ 0.0512 µM)
Number of Occurrences of MIC 0.004 ug/ml (S. pneumoniae ATCC 49619; [16]): 6
Number of Occurrences of MIC 0.008 ug/ml (S. pneumoniae ATCC 49619; [16]): 73
Number of Occurrences of MIC 0.016 ug/ml (S. pneumoniae ATCC 49619; [16]): 137
Number of Occurrences of MIC 0.03 ug/ml (S. pneumoniae ATCC 49619; [16]): 21
Number of Occurrences of MIC 0.06 ug/ml (S. pneumoniae ATCC 49619; [16]): 3
Number of Occurrences of MIC 0.016 ug/ml (S. pneumoniae ATCC 49619; [17]): 1
Number of Occurrences of MIC 0.03 ug/ml (S. pneumoniae ATCC 49619; [17]): 54
Number of Occurrences of MIC 0.06 ug/ml (S. pneumoniae ATCC 49619; [17]): 188
Number of Occurrences of MIC 0.12 ug/ml (S. pneumoniae ATCC 49619; [17]): 48
Number of Occurrences of MIC 0.25 ug/ml (S. pneumoniae ATCC 49619; [17]): 29
In Vitro Activity of Tigecycline ([10]; Oxyrase (2%)): 0.12
In Vitro Activity of Tigecycline ([10]; no Oxyrase): 0.50
MIC [10, 15]: 0.25 µg/mL (≈ 0.427 µM)
MIC ([10]; Fresh Media): 0.12 µg/mL (≈ 0.205 µM)
MIC [11, 15]: 0.03 µg/mL (≈ 0.0512 µM)
MIC ([11]; Fresh Media): 0.015 µg/mL (≈ 0.0256 µM)
In Vitro Activity of Tigecycline ([12]; Oxyrase (2%)): 0.12
In Vitro Activity of Tigecycline ([12]; no Oxyrase): 0.50
MIC ([12]; Escherichia coli, read-out: Minimal Inhibitory Concentration): 0.12 µg/mL (≈ 0.205 µM)
In Vitro Activity of Tigecycline ([13]; Oxyrase (2%)): 0.25
In Vitro Activity of Tigecycline ([13]; no Oxyrase): 0.50
MIC [13, 15]: 0.25 µg/mL (≈ 0.427 µM)
MIC ([13]; Fresh Media): 0.25 µg/mL (≈ 0.427 µM)
MIC [14, 15]: 0.03 µg/mL (≈ 0.0512 µM)
MIC ([14]; Fresh Media): < 0.008 µg/mL
